Data as given in US5281710A, “Dynemicin analogs: synthesis, methods of preparation and use” (The Scripps Research Institute, priority 1992, dated 1994).
pIC50: −log10 of the molar value. Entries after “also recorded” stand apart in the source; their conditions may differ. Where two headings read alike, the source gives them in different places.

Tests used:
φX174 Form I DNA = test: φX174 supercoiled DNA cleavage, agarose gel; type: biochemical; details: for DNA cleavage potency: pH 8.5, 1000 and 100 μM
Procedure: The ethereal solution of Compound 40 produced by the LiAlH4 reduction of Compound 21 (39 mg, 0.10 mmol) was evaporated in vacuo to dryness and the residue dissolved in THF (4 mL) to give a 25 mM solution of Compound 40, assuming complete conversion of Compound 21. […]
Thus, a vial containing a 50 micromolar per base pair solution […] of the same buffer solution and 2.0 microliters of a 5.0 millimolar ethanol solution of Compound 40.
[…] A 2.0 microliter portion of glycerol loading buffer solution containing bromothymol blue indicator was added to each vial. A 10 microliter aliquot was then drawn from each. Gel electrophoresis analysis of the aliquots was performed using a 1.0 percent agarose gel with ethidium bromide run at 115 volts for 1 hour. DNA cleavage was indicated by the formation of nicked relaxed circular DNA (form II) or linearized DNA (form III), which was detected by visual inspection of the gel under 310 nanometer ultraviolet light using ethidium bromide.

Chemical stability = type: physicochemical
[1] = system: MOLT-4 (Leukemia) cell line; test: cells; type: cell-based; details: for pIC50: read-out: IC50; for potency against Molt-4 relative to the other cell lines: Molt-4 vs average of other cell lines
Procedure: (§1) In addition to the screening already discussed, several of the before-described compounds and chimeras were screened against several or all of a panel of ten to twenty-five cancerous cell lines as target cells and seven "normal" cell preparations. This screening utilized a sulforhodamine B cytotoxidity assay as discussed below.
(§2) IC50 values; i.e., the concentration of Compound required to kill one-half of the treated cells, were then calculated.

cancer cell lines = test: cells; type: cell-based; details: for pIC50: Average data obtained from 5~10 cell lines, read-out: IC50 (average); for cytotoxicity (qualitative): cancer cell lines
Procedure: as §1
SULFORHODAMINE B CYTOTOXICITY ASSAY
a. Stock drug solutions were prepared by dissolving drug in the appropriate solvent (determined during chemical characterization studies) and sterile filtering the drug-solvent solution through a sterile 0.2μ filter unit. An aliquot was taken from each filtered drug solution and the O.D. was measured to determine the drug concentration.
f. Incubate (37° C., 5-10 percent CO2 in humidified incubator) plates for a total of 72 hours. Check plates at 24 hour intervals microscopically for signs of cytotoxicity.
as §2
All other cells or cell lines were obtained from the American Type Culture Collection (ATCC) (all except CHO cells are human or mouse cancer cell lines as described by the ATC).
Tables 1 and 2 herein below provide average IC50 data from five to all ten of the above cancer cells lines for fused ring enediyne compounds disclosed herein. Those tables provide a generic structure and a description of the R group of that generic structure for each compound. Compound numbers as noted hereinbefore are also provided. Table 3 contains data for two fused-ring enediyne compounds (Compounds 47 and 120) as well as data for six chimers. Table 4 contains cancer cell and noraml cell cytotoxicity data for one select fused ring enediyne, Compound 153 against a number of "normal" cell preparations and tumor cell lines. Table 5 contains cancer cell and normal cell cytotoxicity data for another fused ring enediyne, Compound 250 against a similar panel of cells.

[2] = system: HL-60 promyeocytic leukemia cells; test: Sulforhodamine B cytotoxicity, HL-60; type: cell-based; details: Homo sapiens, HL-60, HL-60; read-out: IC50
Procedure: as §1, §2

[3] = system: Capan-1 pancreatic carcinoma cells; test: Sulforhodamine B cytotoxicity, Capan-1; type: cell-based; details: Homo sapiens, CAPAN-1, Capan-1; read-out: IC50
Procedure: as §1, §2

[4] = system: MCF-7(ADR) breast carcinoma cells; test: Sulforhodamine B cytotoxicity, MCF-7/ADR; type: cell-based; details: Homo sapiens, NCI/ADR-RES, Adriamycin resistant
Procedure: as §1, §2

SK-Mel-28 melanoma cells = test: Sulforhodamine B cytotoxicity, SK-Mel-28; type: cell-based; details: Homo sapiens, SK-MEL-28, SK-Mel-28; read-out: IC50
Procedure: as §1, §2

[5] = system: NHDF normal human dermal fibroblasts; test: in vitro; type: cell-based; details: NHDF, read-out: Range of Average IC50 Values, NHDF
Procedure: as §1, §2
NHDF Normal human dermal fibroblasts

[6] = Homo sapiens, MOLT-4, Molt-4 leukemia cell line
[7] = 5.0 mM, pH 8.5, 36 hours, 37° C.
[8] = 10 mM, pH 8.5, 48 hours, 37° C.

Compound: COC12C#C/C=C\C#CC3NC4=CC(=O)C=CC45OC15C3(O)CCC2 (stereo not shown) [Compound 58]
- DNA cleavage (φX174 Form I DNA; 5 mM, pH 8.0, 24 hours): diminished activity against DNA
- chemical stability (Chemical stability): stable molecules

Compound: CCNC1COC(OC2C(OCCOC34C#CC=CC#CC5N(C(=O)OCCS(=O)(=O)c6ccccc6)c6ccccc6C36OC56CCC4)OC(C)C(NOC3CC(O)C(SC(=O)c4c(C)c(I)c(OC5OC(C)C(O)C(OC)C5O)c(OC)c4OC)C(C)O3)C2O)CC1OC (stereo not shown) [Compound 127b]
- pIC50 ([1]; Molt-4 leukemia cell line): 10.00
- pIC50 (cancer cell lines): 5.12
- cytotoxicity (qualitative) (cancer cell lines): particularly effective

Compound: COc1ccc2c(c1)C13OC14CCCC3C#C/C=C\C#CC4N2C(=O)OCCS(=O)(=O)c1ccccc1 (stereo not shown) [Compound 41b]
- potency against Molt-4 relative to the other cell lines [1]: 10,000 times
- pIC50 (cancer cell lines): 6.60

Compound: O=C(OCCS(=O)(=O)c1ccccc1)N1c2ccccc2[C@@]23O[C@]24CCC[C@H]3C#C/C=C\C#C[C@H]14 [(+)-45]
- pIC50 [2]: < 7.01
- pIC50 [3]: 6.41
- pIC50 [4]: 6.11
- DNA cleavage potency (φX174 Form I DNA): comparable potencies
- pIC50 (SK-Mel-28 melanoma cells): 5.20

Compound: N.N.[Cl][Pt][Cl] [Cis-Platin]
- pIC50 ([5]; control drugs): 4.30

Compound: N[C@@H](Cc1ccc(N(CCCl)CCCl)cc1)C(=O)O [Melphelan]
- pIC50 ([5]; Homo sapiens): 4.00

Compound: CC(C)(C)C(=O)Oc1ccc2c(c1)N(C(=O)Oc1ccccc1)C1C#C/C=C\C#CC3(O)CCCC14OC234 (stereo not shown) [Compound 59a]
- pIC50 [1, 6]: 7.01
- DNA cleavage (φX174 Form I DNA; [7]): inert
- pIC50 (cancer cell lines): 6.10

Compound: C1#CC2Nc3ccccc3C34OC23CCCC4C#Cc2cc3ccccc3cc21 (stereo not shown) [Compound 87a]
- chemical stability (Chemical stability): stable at 25 °C

Compound: CN(Cc1cnc2nc(N)nc(N)c2n1)c1ccc(C(=O)N[C@@H](CCC(=O)O)C(=O)O)cc1 [Methotrexate]
- pIC50 ([5]; Homo sapiens, control drugs): 4.30

Compound: COc1ccc2c(c1)N(C(=O)Oc1ccccc1)[C@H]1C#C/C=C\C#C[C@]3(O)CCC[C@]14O[C@]243 (relative stereo) [Compound 41]
- DNA cleavage (φX174 Form I DNA; 2 mM, pH 5.0): also cleaved DNA
- pIC50 (cancer cell lines): 4.70
- chemical stability (Chemical stability): reasonable stability under neutral and basic conditions; also recorded: cyclized rapidly under acidic conditions

Compound: COC1=C(C(=O)O)[C@H](C)[C@@]23O[C@]24c2cc(O)c5c(c2N[C@H]3C#C/C=C\C#C[C@H]14)C(=O)c1c(O)ccc(O)c1C5=O [Dynemicin A]
- pIC50 ([5]; Homo sapiens, control drugs): 8.00

Compound: O=C1C=CC23OC24C2(O)C#C/C=C\C#CC(N(C(=O)Oc5ccccc5)C3=C1)C4(O)CCC2 (stereo not shown) [Compound 54]
- DNA cleaving activity (φX174 Form I DNA): exhibited DNA cleaving activity
- DNA cleavage (φX174 Form I DNA; 5 mM, pH 8.0, 24 hours): significant DNA cleavage
- DNA cleavage (φX174 Form I DNA; [7]): exhibited DNA cleaving capability
- chemical stability (Chemical stability): sensitive but stable molecule under neutral conditions

Compound: COc1ccc2c(c1)C13OC14CCCC3C#C/C=C\C#CC4N2C(=O)OCCS(=O)(=O)c1ccc2ccccc2c1 (stereo not shown) [Compound 41d]
- potency against Molt-4 relative to the other cell lines [1]: 10,000 times
- pIC50 (cancer cell lines): 6.89

Compound: COC12C#C/C=C\C#CC3Nc4ccccc4C14OC34CCC2 (stereo not shown) [Compound 48]
- chemical stability (Chemical stability): quite stable under basic or neutral conditions

Compound: OC12CCCC3C#Cc4ccccc4C#CC1Nc1ccccc1C32O (stereo not shown) [Compound 76b]
- DNA cleavage (φX174 Form I DNA; [8]): converted supercoiled .phi.X174 form I DNA
- chemical stability (Chemical stability): cyclized spontaneously at 25 °C in the presence of 1,4-cyclohexadiene

Compound: CCNC1COC(OC2C(OCCOC34C#CC=CC#CC5N(C(=O)OCCS(=O)(=O)c6ccccc6)c6ccccc6C36OC56CCC4)OC(C)C(NOC3CC(O)C(SC(=O)c4c(C)c(I)c(OC5OC(C)C(O)C(OC)C5O)c(OC)c4OC)C(C)O3)C2O)CC1OC (stereo not shown) [Compound 127a]
- pIC50 ([1]; Molt-4 leukemia cell line): 9.00
- potency against Molt-4 relative to the other cell lines [1]: about 100 times
- pIC50 (cancer cell lines): 6.85
- cytotoxicity (qualitative) (cancer cell lines): particularly effective

Compound: O=C(OCCS(=O)(=O)c1ccccc1)N1c2ccccc2[C@@]23O[C@]24CCC[C@H]3C#Cc2cc3ccccc3cc2C#C[C@H]14 (relative stereo) [Compound 80]
- DNA cleavage (φX174 Form I DNA; basic conditions, pH 9.0): exhibited DNA cleaving properties
- pIC50 (cancer cell lines): 5.80
- cytotoxicity (qualitative) (cancer cell lines): potent anticancer activity against a variety of cell lines

Compound: CC(=O)O[C@H]1C(=O)[C@@]2(C)[C@H]([C@H](OC(=O)c3ccccc3)[C@]3(O)C[C@H](OC(=O)[C@H](O)[C@@H](NC(=O)c4ccccc4)c4ccccc4)C(C)=C1C3(C)C)[C@]1(OC(C)=O)CO[C@@H]1C[C@@H]2O [Taxol]
- pIC50 ([5]; Homo sapiens, control drugs): 8.00

Compound: COC12C#C/C=C\C#CC3N(C(=O)Oc4ccccc4)C4=CC(=O)C=CC45OC15C3(O)CCC2 (stereo not shown) [Compound 62]
- DNA cleavage (φX174 Form I DNA; 5 mM, pH 8.0, 24 hours): diminished activity against DNA
- chemical stability (Chemical stability): stable molecules

Compound: CC(C)(C)C(=O)Oc1ccc2c(c1)N(C(=O)Oc1ccccc1)C1C#C/C=C\C#CC3CCCC14OC234 (stereo not shown) [Compound 59b]
- potency against Molt-4 relative to the other cell lines [1]: 10,000 times
- DNA cleavage (φX174 Form I DNA; [7]): inert
- pIC50 (cancer cell lines): 6.70

Compound: O=C(Oc1ccccc1)N1c2cc(OCc3ccccc3[N+](=O)[O-])ccc2C23OC24CCCC3(O)C#C/C=C\C#CC14 (stereo not shown) [Compound 43]
- DNA cleavage (φX174 Form I DNA; [7]): inert
- chemical stability (Chemical stability): rather labile

Compound: OC12CCCC3C#Cc4cc5ccccc5cc4C#CC1Nc1ccccc1C32O (stereo not shown) [Compound 87b]
- DNA cleavage (φX174 Form I DNA; [8]): converted supercoiled .phi.X174 form I DNA
- chemical stability (Chemical stability): stable in the presence of 1,4-cyclohexadiene, but cycloaromatized at elevated temperature (65° C., two hours)

Compound: C1#CC2Nc3ccccc3C34OC23CCCC4C#C/C=C\1 (stereo not shown) [Compound 40]
- DNA cleavage (φX174 Form I DNA; 5 mM, pH 8.0, 24 hours): significant DNA cleavage
- DNA cleavage (φX174 Form I DNA; pH 7.4 phosphate, 20 volume percent THF, 24 hours, 100-5000 μM): cleavage
- chemical stability (Chemical stability): too labile for isolation; also recorded: decomposed at that temperature

Compound: COc1ccc2c(c1)C13OC14CCCC3C#C/C=C\C#CC4N2C(=O)OCCS(=O)(=O)c1cccc2ccccc12 (stereo not shown) [Compound 41c]
- potency against Molt-4 relative to the other cell lines [1]: 10,000 times
- pIC50 (cancer cell lines): 6.70

Compound: O=C(OCCS(=O)(=O)c1ccccc1)N1c2ccccc2[C@]23O[C@@]24CCC[C@@H]3C#C/C=C\C#C[C@@H]14 [(-)-45]
- pIC50 [1, 6]: 7.00
- pIC50 [2]: 6.11
- pIC50 [3]: 5.80
- pIC50 [4]: 5.80
- DNA cleavage potency (φX174 Form I DNA): comparable potencies
- pIC50 (SK-Mel-28 melanoma cells): 5.20

Compound: C1#CC2Nc3ccccc3C34OC23CCCC4C#Cc2ccccc21 (stereo not shown) [Compound 76a]
- chemical stability (Chemical stability): stable at 25 °C

Compound: COC12C#C/C=C\C#CC3N(C(=O)OCCS(=O)(=O)c4ccccc4)c4ccccc4C14OC34CCC2 (stereo not shown) [Compound 47]
- DNA cleavage (φX174 Form I DNA; 5 mM, pH 8.0, 24 hours): diminished activity against DNA
- pIC50 (cancer cell lines): 5.30

Compound: O=C(Oc1ccccc1)N1c2cc(O)ccc2C23OC24CCCC3(O)C#C/C=C\C#CC14 (stereo not shown) [Compound 42]
- cleavage of double stranded DNA (φX174 Form I DNA; 2 mM): shown to cause cleavage of double stranded DNA
- DNA cleavage (φX174 Form I DNA; 5 mM, pH 8.0, 24 hours): significant DNA cleavage
- DNA cleavage (φX174 Form I DNA; [7]): significant DNA cleaving action
- chemical stability (Chemical stability): led to decomposition
